Results taken from ChEMBL document CHEMBL3885861, “Open TG-GATES”.

Species on record: Rattus norvegicus
Assay: Open TG-GATES - Regimen: Single
Type: toxicity, organism-based, Sprague-Dawley
Set-up: regimen Single, gender Male, age 6 weeks
Details: in vivo, po, 100 mg/kg, route gavage, dose level High; for APTT / Bas / Eos / Fbg / Hb / Ht / Lym / MCH / MCHC / MCV / Mono / Neu / PT / Plat / RBC / Ret / WBC: tissue Blood; for A/G / ALP / ALT / AST / BUN / CRE / Ca / Cl / DBIL / GLC / IP / K / LDH / Na / PL / RALB / TBIL / TC / TG / TP / gamma-GTP: tissue Plasma

Cn1cc[nH]c1=S [METHIMAZOLE] was tested, and the TERMINAL_BW (3 h) was 213.6 g, the APTT (3 h) was 21.9 s and the Bas (3 h) was 0%. For the same compound, the Eos (3 h) was 1.2%, the Fbg (3 h) was 315 mg/dL and the Hb (3 h) was 13.9 g/dL. It also gave a Ht (3 h) of 39.4%, a Lym (3 h) of 74% and an MCH (3 h) of 21.8 pg. The MCHC (3 h) was 35.2%, the MCV (3 h) was 61.9 fL and the Mono (3 h) was 2%. It also gave a Neu (3 h) of 23%, a PT (3 h) of 15.4 s and a Plat (3 h) of 121.9 x10_4/uL. The RBC (3 h) was 636.8 x10_4/ul, the Ret (3 h) was 8.7% and the WBC (3 h) was 50 x10_2/uL. For the same compound, the A/G (3 h) was 1.2, the ALP (3 h) was 1490.2 IU/L and the ALT (3 h) was 55 IU/L. It also gave an AST (3 h) of 72.8 IU/L, a BUN (3 h) of 11.8 mg/dL and a CRE (3 h) of 0.1 mg/dL. It also gave a Ca (3 h) of 10.6 mg/dL, a Cl (3 h) of 102.8 meq/L and a DBIL (3 h) of 0.002 mg/dL. For the same compound, the GLC (3 h) was 191.2 mg/dL, the IP (3 h) was 9.7 mg/dL and the K (3 h) was 4.2 meq/L. For the same compound, the LDH (3 h) was 351.4 IU/L, the Na (3 h) was 140 meq/L and the PL (3 h) was 153.6 mg/dL. The RALB (3 h) was 3 g/dL, the TBIL (3 h) was 0.008 mg/dL and the TC (3 h) was 89.2 mg/dL. The TG (3 h) was 62.8 mg/dL, the TP (3 h) was 5.6 g/dL and the gamma-GTP (3 h) was 1 IU/L. For the same compound, the TERMINAL_BW (6 h) was 210.2 g, the APTT (6 h) was 22.6 s and the Bas (6 h) was 0%. It also gave an Eos (6 h) of 0.8%, a Fbg (6 h) of 306.6 mg/dL and a Hb (6 h) of 14.1 g/dL. It also gave a Ht (6 h) of 40.5%, a Lym (6 h) of 72.4% and an MCH (6 h) of 21.4 pg. It also gave an MCHC (6 h) of 34.7%, an MCV (6 h) of 61.7 fL and a Mono (6 h) of 3%. The Neu (6 h) was 23%, the PT (6 h) was 16 s and the Plat (6 h) was 117.2 x10_4/uL. It also gave an RBC (6 h) of 657.2 x10_4/ul, a Ret (6 h) of 7.8% and a WBC (6 h) of 83.4 x10_2/uL. For the same compound, the A/G (6 h) was 1.1, the ALP (6 h) was 1474.2 IU/L and the ALT (6 h) was 46.2 IU/L. It also gave an AST (6 h) of 66.8 IU/L, a BUN (6 h) of 10 mg/dL and a CRE (6 h) of 0.1 mg/dL. The Ca (6 h) was 10.5 mg/dL, the Cl (6 h) was 104.4 meq/L and the DBIL (6 h) was 0.002 mg/dL. The GLC (6 h) was 193 mg/dL, the IP (6 h) was 9.1 mg/dL and the K (6 h) was 4.2 meq/L. It also gave an LDH (6 h) of 344.8 IU/L, a Na (6 h) of 140.2 meq/L and a PL (6 h) of 136.6 mg/dL. The RALB (6 h) was 2.9 g/dL, the TBIL (6 h) was 0.014 mg/dL and the TC (6 h) was 80.2 mg/dL. For the same compound, the TG (6 h) was 52.4 mg/dL, the TP (6 h) was 5.5 g/dL and the gamma-GTP (6 h) was 1.2 IU/L. The TERMINAL_BW (9 h) was 206.1 g, the APTT (9 h) was 21.2 s and the Bas (9 h) was 0%. It also gave an Eos (9 h) of 1%, a Fbg (9 h) of 319.2 mg/dL and a Hb (9 h) of 13.8 g/dL. It also gave a Ht (9 h) of 39%, a Lym (9 h) of 71.4% and an MCH (9 h) of 21.8 pg. It also gave an MCHC (9 h) of 35.3%, an MCV (9 h) of 61.7 fL and a Mono (9 h) of 2.8%. The Neu (9 h) was 23.4%, the PT (9 h) was 16.5 s and the Plat (9 h) was 134.8 x10_4/uL. It also gave an RBC (9 h) of 631.2 x10_4/ul, a Ret (9 h) of 8.1% and a WBC (9 h) of 88.6 x10_2/uL. For the same compound, the A/G (9 h) was 1.2, the ALP (9 h) was 1403 IU/L and the ALT (9 h) was 47 IU/L. For the same compound, the AST (9 h) was 69.8 IU/L, the BUN (9 h) was 12.6 mg/dL and the CRE (9 h) was 0.1 mg/dL. For the same compound, the Ca (9 h) was 10.4 mg/dL, the Cl (9 h) was 105.6 meq/L and the DBIL (9 h) was 0.004 mg/dL. It also gave a GLC (9 h) of 195.2 mg/dL, an IP (9 h) of 8.6 mg/dL and a K (9 h) of 4.2 meq/L. For the same compound, the LDH (9 h) was 309.6 IU/L, the Na (9 h) was 140.6 meq/L and the PL (9 h) was 144.4 mg/dL. It also gave an RALB (9 h) of 2.9 g/dL, a TBIL (9 h) of 0.014 mg/dL and a TC (9 h) of 78.6 mg/dL. The TG (9 h) was 71.6 mg/dL, the TP (9 h) was 5.5 g/dL and the gamma-GTP (9 h) was 1 IU/L. It also gave a TERMINAL_BW (24 h) of 209.2 g, an APTT (24 h) of 20.8 s and a Bas (24 h) of 0%. The Eos (24 h) was 1.2%, the Fbg (24 h) was 303.8 mg/dL and the Hb (24 h) was 14.1 g/dL. The Ht (24 h) was 40%, the Lym (24 h) was 76.8% and the MCH (24 h) was 21.6 pg. It also gave an MCHC (24 h) of 35.3%, an MCV (24 h) of 61.1 fL and a Mono (24 h) of 2.4%. For the same compound, the Neu (24 h) was 18.8%, the PT (24 h) was 16.5 s and the Plat (24 h) was 125.7 x10_4/uL. For the same compound, the RBC (24 h) was 655.6 x10_4/ul, the Ret (24 h) was 7.6% and the WBC (24 h) was 63.5 x10_2/uL. For the same compound, the A/G (24 h) was 1.2, the ALP (24 h) was 1903.8 IU/L and the ALT (24 h) was 44.2 IU/L. It also gave an AST (24 h) of 55.6 IU/L, a BUN (24 h) of 12.6 mg/dL and a CRE (24 h) of 0.1 mg/dL. It also gave a Ca (24 h) of 10.9 mg/dL, a Cl (24 h) of 106.4 meq/L and a DBIL (24 h) of 0.004 mg/dL. For the same compound, the GLC (24 h) was 170 mg/dL, the IP (24 h) was 7.2 mg/dL and the K (24 h) was 4.3 meq/L. The LDH (24 h) was 263 IU/L, the Na (24 h) was 142 meq/L and the PL (24 h) was 159.8 mg/dL. The RALB (24 h) was 2.9 g/dL, the TBIL (24 h) was 0.016 mg/dL and the TC (24 h) was 84.6 mg/dL. For the same compound, the TG (24 h) was 129.6 mg/dL, the TP (24 h) was 5.4 g/dL and the gamma-GTP (24 h) was 1 IU/L.
